# Results as given in US7393857B2, “Use of 5-HT3 receptor antagonists for treating musculoskeletal diseases” (Novasearch AG, priority 1999, dated 2008).
# Legend:
# Type in all cases: in vivo, human
# [1] = system: patients exhibiting rheumatoid arthritis and severe consequential synovial inflammation; assay: Clinical trial: synovial inflammation/synovitis in rheumatoid arthritis, intraarticular tropisetron (Example 1); settings: 2 mg intraarticularly once
# [2] = system: patient with repeated exudation from the knee joint consequential to damage to the meniscus; assay: Clinical case: repeated knee joint exudation after meniscus damage, intra-articular tropisetron (Example 2, first patient); settings: 2 mg intra-articularly
# Method: Prior to the trial the patient received injections of glucocorticoid. The patient receives an injection of 2 mg of tropisetron administered intra-articularly.
# [3] = system: patient with damage to the meniscus and arthritic change leading to synovial irritation with knee joint effusion; assay: Clinical case: synovial irritation with knee joint effusion, i.v. tropisetron (Example 2, second patient)
# Method: […] 2 mg doses of tropisetron are administered i.v. over a period of 17 days with 15 injections, one each day with a 2 days pause in therapy.
# [4] = system: patients exhibiting implant/insertion tendopathy; assay: Clinical trial: implant/insertion tendopathy, local injection of tropisetron (Example 3); settings: 2 mg injected once in the area of greatest pain
# Method: The condition treated results in the case of the first patient from epicondylitis radialis, in the case of the second patient from insertion tendopathy in the area of insertion of the deltoid muscle and, in the case of the third patient from an enthesiopathy of the Malleolus lateralis. In all three cases, tropisetron is injected once at a dosage of 2 mg in the area of greatest pain, directly into the tissues. In all three cases severity of pain decreases within a period of 60 min. and virtually complete remittal is achieved within 24 hrs., indicating remission from disease remission.
# [5] = system: patients with epicondylitis or periarthropathia humeroscapularis; assay: Enthesiopathy (insertion tendopathy) with infiltration, pain on VAS (Example 4a); settings: 7 days after local injection
# From the text: (§1) Pain is subsequently determined on a visual analogue scale (VAS) that goes from 0 mm (no pain) to 100 mm (strongest pain). • 4a) Enthesiopathy (Insertion Tendopathy) (with infiltration): • (i) patient; Diagnosis: epicondylitis. Rest pain before local injection of tropisetron 30 mm, 7 days later 0 mm. • (ii) patient, diagnosis: periarthropathia humeroscapularis. Rest pain before local injection of tropisetron 85 mm, 7 days after local injection 45 mm. • (iii) Patient, diagnosis: epicondylitis. Rest pain before local injection of tropisetron 35 mm, 7 days thereafter 0 mm. • 4b) Rheumatoid arthritis (intraarticular injection): • (i) patient.
# [6] = system: patient with Morbus Still; assay: Left knee joint irritation (Morbus Still), intraarticular injection (Example 4c); settings: for knee joint circumference: before 44 cm; for pain under strain (VAS): before 70; for pain at rest in the VAS (0-100): before 98
# From the text: as §1
# Patient, Morbus Still diagnosed 1.5 years ago. Despite basic treatment with 15 mg methotrexat per week and 20 mg prednisolone per day, the patient suffers from swelling and overheating of the left knee joint for the first time in February 1999. Pain at rest in the VAS 98 (0-100), pain under strain 70. Obvious articular effusion. Knee joint circumference 44 cm, straightening/bending 0°-10°, 115°. 24 hours after an intraarticular injection with 2 mg tropisetron pain at rest in the Visual Analog Scale (VAS) 0, pain under strain 70. […] 7 days later pain at rest in the VAS 0, pain under strain 57, straightening/bending 0°,0°,130°, knee joint circumference 40.5 cm. • 4e) Gonarthrosis: […]
# [7] = system: patient with activated gonarthritis with effusion; assay: Gonarthrosis, intra-articular injection (Example 4e); settings: intra-articular 2 mg; for pain at rest on the visual analog scale for pain (0-100): before 43
# From the text: as §1
# Patient has activated gonarthritis with effusion for 2 months. Only short-term pain reduction by means of non-steroidal antiphlogistics could be achieved. Following an intra-articular injection with 2 mg tropisetron, pain at rest after 24 hours on the visual analog scale for pain (0-100) sinks from 43 to 25, after 2 days to 13, after 7 days to 10 and in a follow-up check after 17 days to 4. The analog values for pain under strain are 75, 45, 10 and 10, respectively. The effusion is gone after 7 days, as is the overheating of the knee joint.
# [8] = system: patient with cervical syndrome; assay: Spinal syndrome: cervical syndrome, i.v. administration (Examples 5 and 6(i)); settings: 2 mg i.v., before injection 68 mm
# From the text: as §1
# Patient, diagnosis: cervical syndrome. Before injection of 2 mg tropisetron 68 mm rest pain, 24 hours later 35 mm, at day 7 18 mm.
# Patient, diagnosis: cervical syndrome. Before i.v. injection of 2 mg tropisetron 68 mm rest pain, 24 hours later 35 mm, at day 7 18 mm. • (ii) Lumbalgia: […]
# [9] = 24 hours after intraarticular injection of 2 mg
# [10] = 7 days later, intraarticular 2 mg
structure (smiles),measurement,setting,value
"CN1[C@@H]2CC[C@H]1C[C@@H](OC(=O)c1c[nH]c3ccccc13)C2 [tropisetron, Indol-3-yl-carboxylic acid-endo-8-methyl-8-aza-bicyclo[3,2,1]-oct-3-yl-ester]",symptoms,[1]; both patients examined over one week following treatment,free of symptoms
same,remission from pain,"[1]; two patients (shoulder joint, knee joint), within a few hours",almost complete remission from pain
same,pain,[2]; after 45 min.,marked reduction of pain
same,effusion from the knee joint,[2]; after 5 hours,major reduction of effusion
same,symptoms,"[2]; without further therapy, observation period of 5 days",free of symptoms
same,movement of the knee joint,[3]; 2 mg i.v. daily,clearly improved
same,time until exudation from the knee joint is completely inhibited,"[3]; 2 mg i.v. daily, without any other medication",≤ 8 days
same,symptoms,"[3]; 2 mg i.v., 15 injections over 17 days, following continuation of injections",virtually free of symptoms
same,persistence of improvement in condition after completion of therapy,"[3]; 2 mg i.v., 15 injections over 17 days, observation following completion of therapy",continues over a further 7 days observation
same,pain,"[3]; 2 mg i.v., 24 hours after the first i.v. injection",significant improvement of pain
same,further improvements after injection,[4],increase of strength and of flexibility of the affected body part
same,period within which severity of pain decreases,[4]; all three patients,≤ 60 min
same,time within which virtually complete remittal is achieved,[4]; all three patients,≤ 24 h
same,rest pain (VAS),"[5]; patient (i), epicondylitis, before injection 30 mm",0 mm
same,rest pain (VAS),"[5]; patient (ii), periarthropathia humeroscapularis, before injection 85 mm",45 mm
same,rest pain (VAS),"[5]; patient (iii), epicondylitis, before injection 35 mm",0 mm
same,joint swelling and effusion,[6]; [9],significant reduction of joint swelling and effusion
same,knee joint circumference,[6]; [9],41 cm
same,pain under strain (VAS),[6]; [9],70
same,pain at rest in the VAS (0-100),"[6]; 24 hours after intraarticular injection of 2 mg, on methotrexat and prednisolone",0
same,knee joint circumference,[6]; [10],40.5 cm
same,pain under strain (VAS),[6]; [10],57
same,pain at rest in the VAS (0-100),[6]; [10],0
same,pain at rest on the visual analog scale for pain (0-100),[7]; after 24 hours,25
same,pain at rest on the visual analog scale for pain (0-100),[7]; after 2 days,13
same,effusion,[7]; after 7 days,gone
same,overheating of the knee joint,[7]; after 7 days,gone
same,pain at rest on the visual analog scale for pain (0-100),[7]; after 7 days,10
same,pain at rest on the visual analog scale for pain (0-100),[7]; follow-up check after 17 days,4
same,"pain under strain, visual analog scale (0-100)","[7]; fourth of four printed values, time point unclear (7 or 17 days)",10
same,"pain under strain, visual analog scale (0-100)","[7]; second of four printed values, presumably after 24 hours, first value (before) 75",45
same,"pain under strain, visual analog scale (0-100)","[7]; third of four printed values, time point unclear (2 or 7 days)",10
same,rest pain (VAS),[8]; 24 hours later,35 mm
same,rest pain (VAS),[8]; at day 7,18 mm
